Source: patent US20250353833A1, “DPP9 BINDING COMPOUNDS” (UNIVERSITEIT ANTWERPEN, priority 2022, published 2025)
Read-outs that look alike come from different tables or passages of the source.

Columns and labels:
Format in all cases: biochemical
FAP = FAP (Homo sapiens (Human), UniProt Q12884); experiment: FAP enzyme inhibition, IC50 measurement (Z-Gly-Pro-AMC release); settings: for IC50: Table 1, mean ± SD (n = 3)
PREP = PREP (Homo sapiens (Human), UniProt P48147); experiment: PREP enzyme inhibition, IC50 measurement (N-succinyl-Gly-Pro-AMC release); settings: Table 1; mean ± SD (n = 3)
Chain of PREP (P48147 whole entry): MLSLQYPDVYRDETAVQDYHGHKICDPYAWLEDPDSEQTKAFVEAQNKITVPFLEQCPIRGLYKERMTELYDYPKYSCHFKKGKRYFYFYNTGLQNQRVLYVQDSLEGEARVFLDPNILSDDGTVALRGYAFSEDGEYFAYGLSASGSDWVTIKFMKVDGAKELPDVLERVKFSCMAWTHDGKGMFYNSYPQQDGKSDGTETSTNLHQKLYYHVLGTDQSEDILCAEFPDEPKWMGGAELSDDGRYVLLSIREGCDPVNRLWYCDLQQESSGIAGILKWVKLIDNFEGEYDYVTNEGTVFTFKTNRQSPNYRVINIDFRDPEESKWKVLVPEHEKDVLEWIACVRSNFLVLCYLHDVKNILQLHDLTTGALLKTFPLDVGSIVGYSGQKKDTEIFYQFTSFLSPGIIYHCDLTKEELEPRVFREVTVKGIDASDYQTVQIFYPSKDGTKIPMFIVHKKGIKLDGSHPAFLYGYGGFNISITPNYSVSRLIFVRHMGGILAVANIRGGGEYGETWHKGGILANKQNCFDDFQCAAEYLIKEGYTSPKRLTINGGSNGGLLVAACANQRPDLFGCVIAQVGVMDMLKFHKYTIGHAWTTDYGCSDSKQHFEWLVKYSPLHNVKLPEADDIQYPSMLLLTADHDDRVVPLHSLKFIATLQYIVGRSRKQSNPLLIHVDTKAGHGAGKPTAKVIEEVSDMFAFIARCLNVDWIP
Experimental: (§1) IC50 measurements. […] The Magellan software was used to process the data, which was then fitted using a non-linear fit model in GraFit 7. […] As a blank, the assay buffer was used instead of the enzyme. Screening measurements were carried out in duplo and IC50 values were determined in triplo with at least eight different inhibitor concentrations as described by Van Goethem et al.

DPP8 = DPP8 (Homo sapiens (Human), UniProt Q6V1X1); experiment: DPP8 enzyme inhibition, IC50 measurement (Ala-Pro-pNA release)
Chain of DPP8 (Q6V1X1 whole entry): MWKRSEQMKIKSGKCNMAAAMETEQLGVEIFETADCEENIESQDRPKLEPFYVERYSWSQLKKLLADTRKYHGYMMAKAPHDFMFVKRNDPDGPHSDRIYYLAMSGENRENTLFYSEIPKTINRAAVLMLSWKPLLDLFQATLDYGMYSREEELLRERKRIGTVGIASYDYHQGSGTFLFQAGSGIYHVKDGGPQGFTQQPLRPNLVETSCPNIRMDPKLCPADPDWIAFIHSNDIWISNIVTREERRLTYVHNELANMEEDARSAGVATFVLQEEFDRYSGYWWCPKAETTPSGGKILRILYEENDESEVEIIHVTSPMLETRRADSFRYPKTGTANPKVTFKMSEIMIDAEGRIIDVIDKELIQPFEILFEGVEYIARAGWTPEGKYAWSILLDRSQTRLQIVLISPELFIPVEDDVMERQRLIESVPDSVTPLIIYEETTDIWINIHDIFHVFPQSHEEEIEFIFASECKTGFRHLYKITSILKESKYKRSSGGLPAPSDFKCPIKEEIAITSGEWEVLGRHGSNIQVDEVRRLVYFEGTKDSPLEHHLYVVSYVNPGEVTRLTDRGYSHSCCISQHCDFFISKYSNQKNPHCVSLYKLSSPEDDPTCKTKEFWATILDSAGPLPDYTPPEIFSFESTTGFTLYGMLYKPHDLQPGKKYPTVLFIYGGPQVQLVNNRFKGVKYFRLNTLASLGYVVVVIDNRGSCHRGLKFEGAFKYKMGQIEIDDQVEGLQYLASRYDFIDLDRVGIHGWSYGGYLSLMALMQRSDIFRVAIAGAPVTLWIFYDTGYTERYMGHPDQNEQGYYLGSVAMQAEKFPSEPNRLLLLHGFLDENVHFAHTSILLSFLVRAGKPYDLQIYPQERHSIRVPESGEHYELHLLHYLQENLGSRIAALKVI
Experimental: as §1

DPP2 = DPP2 (Homo sapiens (Human), UniProt Q9UHL4); experiment: DPP2 enzyme inhibition, IC50 measurement (Lys-Ala-pNA release); settings: Table 1; mean ± SD (n = 3)
Experimental: as §1

DPP9 = DPP9 (Homo sapiens (Human), UniProt Q86TI2); experiment: DPP9 enzyme inhibition, IC50 measurement (Ala-Pro-pNA release); settings: for SI DPP9/8 / SI DPP9/DPP8: selectivity index; for SI DPP9/8: DPP8 IC50 over DPP9 IC50
Chain of DPP9 (Q86TI2 whole entry): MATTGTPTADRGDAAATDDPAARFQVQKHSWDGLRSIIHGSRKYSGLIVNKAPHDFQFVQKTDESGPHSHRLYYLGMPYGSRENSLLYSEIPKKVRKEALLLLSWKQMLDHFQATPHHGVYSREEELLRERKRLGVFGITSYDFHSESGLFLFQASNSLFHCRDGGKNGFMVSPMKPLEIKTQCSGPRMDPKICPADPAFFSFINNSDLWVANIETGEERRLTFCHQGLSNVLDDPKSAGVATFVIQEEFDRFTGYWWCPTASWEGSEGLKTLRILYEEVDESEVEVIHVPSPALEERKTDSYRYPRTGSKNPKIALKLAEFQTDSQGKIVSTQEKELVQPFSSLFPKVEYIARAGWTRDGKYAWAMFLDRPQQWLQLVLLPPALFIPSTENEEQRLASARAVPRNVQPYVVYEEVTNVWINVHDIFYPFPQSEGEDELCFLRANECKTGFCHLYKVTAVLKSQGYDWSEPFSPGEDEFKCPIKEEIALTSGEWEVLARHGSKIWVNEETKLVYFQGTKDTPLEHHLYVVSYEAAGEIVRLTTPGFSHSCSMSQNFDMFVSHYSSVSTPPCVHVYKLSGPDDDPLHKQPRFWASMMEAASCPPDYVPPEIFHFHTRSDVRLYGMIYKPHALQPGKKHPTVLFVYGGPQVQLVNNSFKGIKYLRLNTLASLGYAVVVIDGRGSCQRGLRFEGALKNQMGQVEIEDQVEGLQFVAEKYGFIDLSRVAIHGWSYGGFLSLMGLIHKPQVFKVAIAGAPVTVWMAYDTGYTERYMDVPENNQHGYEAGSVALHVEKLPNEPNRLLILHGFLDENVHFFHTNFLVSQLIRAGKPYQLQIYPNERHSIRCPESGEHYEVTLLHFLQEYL
Experimental: DPP4 was purified from human seminal plasma as described previously.^[3]
as §1

[1] = Table 1, mean ± SD (n = 3), read-out: IC50 DPP8
[2] = Table 3, mean ± SD (n = 3), read-out: DPP8 IC50 ± SD
[3] = Table 3, mean ± SD (n = 3), read-out: DPP9 IC50 ± SD
[4] = Table 4, standard method, read-out: IC50 DPP8
[5] = Table 4, standard method, read-out: IC50 DPP9

Chain of FAP (Q12884 27-760): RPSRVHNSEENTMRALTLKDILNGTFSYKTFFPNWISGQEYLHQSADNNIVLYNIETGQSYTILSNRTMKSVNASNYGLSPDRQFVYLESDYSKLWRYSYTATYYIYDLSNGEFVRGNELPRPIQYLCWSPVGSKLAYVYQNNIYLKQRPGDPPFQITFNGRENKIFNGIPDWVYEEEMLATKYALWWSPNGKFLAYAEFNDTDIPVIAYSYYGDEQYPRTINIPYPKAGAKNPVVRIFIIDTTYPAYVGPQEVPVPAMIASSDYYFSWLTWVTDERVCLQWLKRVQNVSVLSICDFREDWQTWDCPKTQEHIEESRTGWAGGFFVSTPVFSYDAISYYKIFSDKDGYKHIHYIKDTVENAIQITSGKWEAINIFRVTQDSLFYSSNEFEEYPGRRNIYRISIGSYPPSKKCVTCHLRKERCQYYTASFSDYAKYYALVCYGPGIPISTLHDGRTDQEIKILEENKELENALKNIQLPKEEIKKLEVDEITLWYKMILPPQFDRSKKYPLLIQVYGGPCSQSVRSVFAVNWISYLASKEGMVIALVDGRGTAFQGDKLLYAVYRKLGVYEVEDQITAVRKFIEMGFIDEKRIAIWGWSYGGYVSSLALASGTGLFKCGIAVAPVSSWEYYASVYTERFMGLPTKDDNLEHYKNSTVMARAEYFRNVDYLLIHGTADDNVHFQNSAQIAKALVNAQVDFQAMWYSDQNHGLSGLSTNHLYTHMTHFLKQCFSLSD

Molecule | IC50 (DPP8; [2]) | IC50 (DPP9; [3]) | SI DPP9/8 (DPP9; Table 3) | IC50 (DPP8; [4]) | SI DPP9/DPP8 (DPP9; Table 4) | IC50 (DPP9; [5]) | other results
N#C[C@@H]1CCCN1C(=O)CNC12CC3CC(C1)CC(OCc1ccccc1)(C3)C2 [Compound 5a, (S)-1-((-3-(benzyloxy)adamantan-1-yl)glycyl)pyrrolidine-2-carbonitrile] |  |  |  |  |  |  | IC50 (FAP): 4 ± 4 µM; inhibition of FAP (FAP; at the tested concentrations): micromolar inhibitor; IC50 (PREP): 4.3 ± 0.3 µM; IC50 (DPP8; [1]): 1.32 ± 0.2 µM; IC50 (DPP2): > 5 µM; SI DPP9/8 (DPP9; Table 1): 9.9
CCCCOC12CC3CC(CC(NCC(=O)N4C[C@@H](N=[N+]=[N-])C[C@H]4C#N)(C3)C1)C2 [Compound 5g, (2S,4S)-4-azido-1-((3-butoxyadamantan-1-yl)glycyl)pyrrolidine-2-carbonitrile] |  |  |  |  |  |  | IC50 (FAP): > 10 µM; IC50 (PREP): > 10 µM; IC50 (DPP8; [1]): 0.27 ± 0.06 µM; IC50 (DPP2): > 5 µM; IC50 (DPP9; Table 1, mean ± SD (n = 3), read-out: IC50 DPP9): 0.035 ± 0.002 µM; SI DPP9/4 (DPP9; Table 1, selectivity index DPP9/4): 3.8; SI DPP9/8 (DPP9; Table 1): 7.8
COC(=O)[C@H](Cc1c[nH]c2ccccc12)NC(=O)OC12CC3CC(CC(NCC(=O)N4Cc5ccc(F)cc5C4)(C3)C1)C2 [Compound 60, Methyl (((3-((2-(5-fluoroisoindolin-2-yl)-2-oxoethyl)amino)adamantan-1-yl)oxy)carbonyl)-L-tryptophanate] | 0.689 ± 0.0323 µM | 0.0438 µM | 15.7 |  |  |  | 
COC(=O)[C@H](CCSC)NC(=O)OC12CC3CC(CC(NCC(=O)N4Cc5ccc(F)cc5C4)(C3)C1)C2 [Compound 61, Methyl (((-3-((2-(5-fluoroisoindolin-2-yl)-2-oxoethyl)amino)adamantan-1-yl)oxy)carbonyl)-L-methioninate] | 0.705 ± 0.076 µM | 0.0461 µM | 15.3 |  |  |  | 
COC(=O)[C@H](C)NC(=O)OC12CC3CC(CC(NCC(=O)N4Cc5ccc(F)cc5C4)(C3)C1)C2 [Compound 62, Methyl (((3-((2-(5-fluoroisoindolin-2-yl)-2-oxoethyl)amino)adamantan-1-yl)oxy)carbonyl)-L-alaninate] | 1.29 ± 0.186 µM | 0.0938 ± 0.0173 µM | 13.8 |  |  |  | 
CC12CC3CC(C)(C1)CC(NCC(=O)N1Cc4ccc(F)cc4C1)(C3)C2 [Compound 63, 2-((3,5-Dimethyladamantan-1-yl)amino)-1-(5-fluoroisoindolin-2-yl)ethan-1-one] | 4.78 ± 0.67 µM | 0.443 ± 0.168 µM | 10.8 |  |  |  | 
O=C(CCCCC1SCC2NC(=O)NC21)NCCOCCOCCOCCNC(=O)NC12CC3CC(CC(NCC(=O)N4Cc5ccc(F)cc5C4)(C3)C1)C2 (stereo not shown) [Compound 75, N-(1-((3-((2-(5-fluoroisoindolin-2-yl)-2-oxoethyl)amino)adamantan-1-yl)amino)-1-oxo-5,8,11-trioxa-2-azatridecan-13-yl)-5-(2-oxohexahydro-1H-thieno[3,4-d]imidazol-4-yl)pentanamide] | 0.495 ± 0.072 µM | 0.043 µM | 12 |  |  |  | 
O=C1CCC(N2C(=O)c3cccc(NCCOCCOC(=O)NC45CC6CC(CC(NCC(=O)N7Cc8ccc(F)cc8C7)(C6)C4)C5)c3C2=O)C(=O)N1 (stereo not shown) [Compound 76, 2-(2-((2-(2,6-Dioxopiperidin-3-yl)-1,3-dioxoisoindolin-4-yl)amino)ethoxy)ethyl (3-((2-(5-fluoroisoindolin-2-yl)-2-oxoethyl)amino)adamantan-1-yl)carbamate] | 0.008 µM | 0.0014 µM | 6 |  |  |  | 
O=C1CCC(N2C(=O)c3cccc(NCCOCCNC(=O)NC45CC6CC(CC(NCC(=O)N7Cc8ccc(F)cc8C7)(C6)C4)C5)c3C2=O)C(=O)N1 (stereo not shown) [Compound 77, 1-(2-(2-((2-(2,6-Dioxopiperidin-3-yl)-1,3-dioxoisoindolin-4-yl)amino)ethoxy)ethyl)-3-(3-((2-(5-fluoroisoindolin-2-yl)-2-oxoethyl)amino)adamantan-1-yl)urea] | 0.021 µM | 0.0024 µM | 9 |  |  |  | 
O=C1CCC(N2C(=O)c3cccc(NCCOCCOCCOCCNC(=O)NC45CC6CC(CC(NCC(=O)N7Cc8ccc(F)cc8C7)(C6)C4)C5)c3C2=O)C(=O)N1 (stereo not shown) [Compound 78, 1-(2-(2-(2-(2-((2-(2,6-Dioxopiperidin-3-yl)-1,3-dioxoisoindolin-4-yl)amino)ethoxy)ethoxy)ethoxy)ethyl)-3-(3-((2-(5-fluoroisoindolin-2-yl)-2-oxoethyl)amino)adamantan-1-yl)urea] | 0.079 µM | 0.012 µM | 7 |  |  |  | 
Cc1ccc2c(c1)CN(C(=O)CNC13CC4CC(C1)CC(NC(=O)OC(C)(C)C)(C4)C3)C2 [Compound 84, tert-butyl ((1s,3r,5R,7S)-3-((2-(5-methylisoindolin-2-yl)-2-oxoethyl)amino)adamantan-1-yl)carbamate] |  |  |  | 4.71 ± 0.444 µM | 23 | 0.208 ± 0.048 µM | 
CC(C)(C)NC(=O)NC12CC3CC(CC(NCC(=O)N4Cc5cc(F)c(F)cc5C4)(C3)C1)C2.Cl [Compound 85, 1-(tert-butyl)-3-((1s,3r,5R,7S)-3-((2-(5,6-difluoroisoindolin-2-yl)-2-oxoethyl)amino)adamantan-1-yl)urea hydrochloride] |  |  |  | 1.33 ± 0.097 µM | 41 | 0.032 µM | 
CC(C)(C)CC(=O)NC12CC3CC(CC(NCC(=O)N4Cc5cc(F)c(F)cc5C4)(C3)C1)C2 [Compound 86, N-((1s,3r,5R,7S)-3-((2-(5,6-difluoroisoindolin-2-yl)-2-oxoethyl)amino)adamantan-1-yl)-3,3-dimethylbutanamide] |  |  |  | 1.3 ± 0.127 µM | 22 | 0.058 µM | 
Cl.O=C(NC12CC3CC(CC(NCC(=O)N4Cc5ccc(F)cc5C4)(C3)C1)C2)c1ccc(-c2cccnc2)cc1 [Compound 88, N-((1s,3r,5R,7S)-3-((2-(5-fluoroisoindolin-2-yl)-2-oxoethyl)amino)adamantan-1-yl)-4-(pyridin-3-yl)benzamide hydrochloride] |  |  |  | 0.051 ± 0.025 µM | 24 | 0.002 µM | 
Cl.O=C(NC12CC3CC(CC(NCC(=O)N4Cc5ccc(F)cc5C4)(C3)C1)C2)c1ccc(-c2ccccn2)cc1 [Compound 90, N-((1s,3r,5R,7S)-3-((2-(5-fluoroisoindolin-2-yl)-2-oxoethyl)amino)adamantan-1-yl)-4-(pyridin-2-yl)benzamide hydrochloride] |  |  |  | 0.127 ± 0.023 µM | 37 | 0.003 µM | 
Cl.O=C(NC12CC3CC(CC(NCC(=O)N4Cc5ccc(F)cc5C4)(C3)C1)C2)c1ccc(-c2ccncc2)cc1 [Compound 91, N-((1s,3r,5R,7S)-3-((2-(5-fluoroisoindolin-2-yl)-2-oxoethyl)amino)adamantan-1-yl)-4-(pyridin-4-yl)benzamide hydrochloride] |  |  |  | 0.102 ± 0.028 µM | 12 | 0.008 µM | 
Cl.O=C(NC12CC3CC(CC(NCC(=O)N4Cc5ccc(F)cc5C4)(C3)C1)C2)c1ccc(F)cc1 [Compound 95, 4-fluoro-N-((1s,3r,5R,7S)-3-((2-(5-fluoroisoindolin-2-yl)-2-oxoethyl)amino)adamantan-1-yl)benzamide hydrochloride] |  |  |  | 0.295 ± 0.015 µM | 7 | 0.042 µM | 
Cl.O=C(NC12CC3CC(CC(NCC(=O)N4Cc5ccc(F)cc5C4)(C3)C1)C2)c1cccnc1 [Compound 98, N-((1s,3r,5R,7S)-3-((2-(5-fluoroisoindolin-2-yl)-2-oxoethyl)amino)adamantan-1-yl)nicotinamide hydrochloride] |  |  |  | 0.27 ± 0.033 µM | 3 | 0.088 ± 0.023 µM | 
Cc1ncsc1-c1ccc(CNC(=O)[C@@H]2C[C@@H](O)CN2C(=O)[C@@H](NC(=O)CCOCCOCCOCCC(=O)NC23CC4CC(CC(NCC(=O)N5Cc6ccc(F)cc6C5)(C4)C2)C3)C(C)(C)C)cc1 [Compound 124, (2S,4R)-1-((2S)-2-(tert-butyl)-16-((3-((2-(5-fluoroisoindolin-2-yl)-2-oxoethyl)amino)adamantan-1-yl)amino)-4,16-dioxo-7,10,13-trioxa-3-azahexadecanoyl)-4-hydroxy-N-(4-(4-methylthiazol-5-yl)benzyl)pyrrolidine-2-carboxamide] |  |  |  | 0.094 ± 0.025 µM | 5 | 0.02 µM | 
Lithium (((3-((2-(5-fluoroisoindolin-2-yl)-2-oxoethyl)amino)adamantan-1-yl)oxy)carbonyl)glycine [Compound 54] | 0.243 ± 0.0464 µM | 0.00888 µM | 27.4 |  |  |  | 
Methyl (((3-((2-(5-fluoroisoindolin-2-yl)-2-oxoethyl)amino)adamantan-1-yl)oxy)carbonyl)-L-isoleucinate [Compound 57] | 2.18 ± 0.345 µM | 0.107 µM | 20.4 |  |  |  | 
N-(3-((2-(isoindolin-2-yl)-2-oxoethyl)amino)adamantan-1-yl)adamantane-1-carboxamide [Compound 43] | 5.7 ± 1.1 µM | 0.186 ± 0.0536 µM | 30.6 |  |  |  | 
N-(-3-((2-(5-fluoroisoindolin-2-yl)-2-oxoethyl)amino)adamantan-1-yl)adamantane-1-carboxamide [Compound 45] | 1.18 ± 0.138 µM | 0.038 ± 0.01 µM | 31 |  |  |  | 
lithium (((3-((2-(5-fluoroisoindolin-2-yl)-2-oxoethyl)amino)adamantan-1-yl)oxy)carbonyl)-L-tryptophanate [Compound 56] | 2.08 ± 0.184 µM | 0.0946 µM | 22.0 |  |  |  | 
